Earlier results in patent US20230106592A1, “METHOD FOR TREATING CANCER USING A COMBINATION OF DNA DAMAGING AGENTS AND ATR INHIBITORS” (Vertex Pharmaceuticals Incorporated, priority 2015, published 2023).
Where two headings read alike, the source gives them in different places.

Tested on: ovarian cancer
Details: cited from earlier work

Structure (SMILES) | Outcome of prior line of treatment (monotherapy, refractory high grade serous ovarian cancer subject) | Outcome of prior line of treatment (ovarian cancer subject with BRCA2 germline mutation)
Cn1ncnc1[C@H]1c2n[nH]c(=O)c3cc(F)cc(c23)N[C@@H]1c1ccc(F)cc1 [Talazoparib] | progressive disease after 10 months | 
O=C(c1cc(Cc2n[nH]c(=O)c3ccccc23)ccc1F)N1CCN(C(=O)C2CC2)CC1 [olaparib] |  | no response
